Where “and” joins values, the source holds several entries; their conditions need not be identical. Identical values can stand only once. Like-named read-outs stand apart in the source and are kept apart here.
Experiments:
[1] = target: T1, CYP3A4 (Homo sapiens, UniProt P08684); test: Part D: effect of steady-state tucatinib on pharmacokinetics of midazolam; settings: for clinical classification as inhibitor of CYP3A/CYP3A4: steady-state tucatinib 300 mg BID, midazolam probe
[2] = test system: CYP2C8; format: in vivo, human; settings: 84 subjects enrolled in this study; regardless of phenotype
[3] = target: T2, CYP2C8 (Homo sapiens, UniProt P10632)
T2 sequence (P10632 1-490): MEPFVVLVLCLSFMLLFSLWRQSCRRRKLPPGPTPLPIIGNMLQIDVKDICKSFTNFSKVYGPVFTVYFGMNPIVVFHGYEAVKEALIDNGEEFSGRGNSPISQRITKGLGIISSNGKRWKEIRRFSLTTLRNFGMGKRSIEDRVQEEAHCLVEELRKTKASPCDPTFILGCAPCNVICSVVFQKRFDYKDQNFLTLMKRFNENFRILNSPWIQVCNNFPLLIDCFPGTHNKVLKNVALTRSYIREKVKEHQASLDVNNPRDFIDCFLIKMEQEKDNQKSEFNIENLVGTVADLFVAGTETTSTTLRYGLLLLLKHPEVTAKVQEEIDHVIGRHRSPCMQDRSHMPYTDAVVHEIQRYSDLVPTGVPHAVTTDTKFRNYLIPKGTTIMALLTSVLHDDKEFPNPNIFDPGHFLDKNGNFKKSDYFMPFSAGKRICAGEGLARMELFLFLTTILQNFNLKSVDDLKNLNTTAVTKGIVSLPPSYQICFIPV

[4] = test system: CYP3A4/CYP2C8; test: Part B: effect of rifampin; format: in vivo, human
[5] = target: CYP2C9 (Homo sapiens, UniProt P11712); test: Part D: effect of steady-state tucatinib on pharmacokinetics of tolbutamide
[6] = target: T1, CYP3A4; test: Part A: effect of itraconazole; format: in vivo
[7] = target: P-glycoprotein (P-gp) (Homo sapiens, UniProt P08183); test: Part E: effect of steady-state tucatinib on pharmacokinetics of digoxin; format: in vivo; settings: for clinical classification as inhibitor of P-glycoprotein: steady-state tucatinib 300 mg BID, digoxin probe
[8] = test system: CYP2C9; settings: in vitro; cited from earlier work
[9] = test system: CYP2C8; settings: in vitro; cited from earlier work
[10] = Safety assessments; format: in vivo, human
[11] = target: T2, CYP2C8; settings: for clinical classification as inhibitor of CYP2C8: steady-state tucatinib 300 mg BID, repaglinide probe
[12] = test system: CYP3A4; settings: in vitro; cited from earlier work
[13] = cited from earlier work
[14] = test system: P-glycoprotein (P-gp); settings: in vitro; cited from earlier work
[15] = humans, cited from earlier work
[16] = tolbutamide/midazolam + tucatinib vs tolbutamide/midazolam alone
[17] = with tucatinib vs tolbutamide/midazolam alone
[18] = tucatinib + gemfibrozil vs tucatinib alone
[19] = tucatinib + rifampin vs tucatinib alone
[20] = tucatinib + itraconazole vs tucatinib alone
[21] = digoxin + tucatinib vs digoxin alone
[22] = following gemfibrozil vs tucatinib alone
[23] = in the presence of rifampin vs tucatinib alone
[24] = coadministration of itraconazole vs tucatinib alone

P-glycoprotein (P-gp) (Homo sapiens, UniProt P08183), sequence (P08183 whole entry): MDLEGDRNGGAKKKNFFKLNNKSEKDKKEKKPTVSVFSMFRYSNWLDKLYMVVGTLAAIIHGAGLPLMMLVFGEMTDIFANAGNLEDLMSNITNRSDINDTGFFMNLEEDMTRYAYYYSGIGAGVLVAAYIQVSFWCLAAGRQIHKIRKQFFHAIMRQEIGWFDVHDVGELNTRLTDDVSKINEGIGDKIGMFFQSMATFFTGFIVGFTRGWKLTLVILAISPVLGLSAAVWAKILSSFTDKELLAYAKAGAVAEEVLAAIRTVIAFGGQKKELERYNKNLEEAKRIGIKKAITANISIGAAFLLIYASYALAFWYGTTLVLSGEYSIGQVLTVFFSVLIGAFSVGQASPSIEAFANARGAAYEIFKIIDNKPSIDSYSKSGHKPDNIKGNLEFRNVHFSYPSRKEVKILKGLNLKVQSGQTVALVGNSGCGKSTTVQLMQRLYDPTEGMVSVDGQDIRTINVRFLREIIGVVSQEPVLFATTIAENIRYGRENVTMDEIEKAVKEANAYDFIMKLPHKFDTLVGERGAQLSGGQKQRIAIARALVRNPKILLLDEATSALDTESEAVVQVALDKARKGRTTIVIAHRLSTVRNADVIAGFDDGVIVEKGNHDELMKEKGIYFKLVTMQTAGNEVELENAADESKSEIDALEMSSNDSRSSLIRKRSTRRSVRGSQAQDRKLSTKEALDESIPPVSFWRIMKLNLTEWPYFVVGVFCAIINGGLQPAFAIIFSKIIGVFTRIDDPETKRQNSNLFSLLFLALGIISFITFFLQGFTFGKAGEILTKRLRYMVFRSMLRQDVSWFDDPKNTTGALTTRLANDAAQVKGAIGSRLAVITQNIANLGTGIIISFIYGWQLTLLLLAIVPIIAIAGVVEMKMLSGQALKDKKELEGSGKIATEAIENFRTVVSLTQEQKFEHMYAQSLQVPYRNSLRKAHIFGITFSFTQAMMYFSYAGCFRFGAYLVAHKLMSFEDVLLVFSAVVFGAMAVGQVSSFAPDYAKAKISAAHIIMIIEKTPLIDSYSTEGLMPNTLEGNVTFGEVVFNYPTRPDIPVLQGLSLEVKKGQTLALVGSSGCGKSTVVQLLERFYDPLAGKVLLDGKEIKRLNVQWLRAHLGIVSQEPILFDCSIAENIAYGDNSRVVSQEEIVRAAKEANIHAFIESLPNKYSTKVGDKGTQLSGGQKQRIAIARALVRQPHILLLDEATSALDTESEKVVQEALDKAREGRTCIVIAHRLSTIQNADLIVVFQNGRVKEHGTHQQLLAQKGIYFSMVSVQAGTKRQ
T1 sequence (P08684 whole entry): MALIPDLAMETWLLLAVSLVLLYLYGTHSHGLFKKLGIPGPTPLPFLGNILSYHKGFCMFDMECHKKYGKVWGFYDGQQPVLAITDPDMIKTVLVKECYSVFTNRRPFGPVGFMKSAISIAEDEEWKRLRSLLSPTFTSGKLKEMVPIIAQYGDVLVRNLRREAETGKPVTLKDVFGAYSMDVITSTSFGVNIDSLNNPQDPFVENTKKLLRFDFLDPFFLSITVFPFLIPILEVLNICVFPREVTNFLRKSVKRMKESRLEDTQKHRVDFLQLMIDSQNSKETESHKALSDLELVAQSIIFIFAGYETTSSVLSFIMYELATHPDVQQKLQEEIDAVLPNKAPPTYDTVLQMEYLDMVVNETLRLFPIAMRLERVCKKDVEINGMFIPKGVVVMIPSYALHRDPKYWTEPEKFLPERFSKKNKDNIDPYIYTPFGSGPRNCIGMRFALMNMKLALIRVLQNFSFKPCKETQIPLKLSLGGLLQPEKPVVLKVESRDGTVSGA
CYP2C9 (Homo sapiens, UniProt P11712), sequence (P11712 whole entry): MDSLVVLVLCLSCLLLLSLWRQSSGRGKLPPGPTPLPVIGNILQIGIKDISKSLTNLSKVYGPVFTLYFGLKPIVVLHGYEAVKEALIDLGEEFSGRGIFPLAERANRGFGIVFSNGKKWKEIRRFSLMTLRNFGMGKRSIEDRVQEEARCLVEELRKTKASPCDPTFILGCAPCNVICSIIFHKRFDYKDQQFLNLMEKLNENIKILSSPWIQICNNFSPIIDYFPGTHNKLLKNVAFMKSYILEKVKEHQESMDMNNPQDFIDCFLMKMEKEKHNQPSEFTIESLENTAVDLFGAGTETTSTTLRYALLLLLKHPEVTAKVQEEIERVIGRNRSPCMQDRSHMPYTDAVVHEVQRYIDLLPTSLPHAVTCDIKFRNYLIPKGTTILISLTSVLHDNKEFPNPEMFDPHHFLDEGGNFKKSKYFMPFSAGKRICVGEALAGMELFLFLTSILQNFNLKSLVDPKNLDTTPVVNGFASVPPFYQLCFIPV

With Cc1ncc2n1-c1ccc(Cl)cc1C(c1ccccc1F)=NC2 [Midazolam, midazolam] the “increase in plasma exposure based on AUC0–inf” value (“increase … on AUC0–inf” for short) [1, 16] was 5.7 fold and > 5 fold, the “increase in plasma exposure based on AUC0–last” value (“increase … on AUC0–last” for short) [1, 16] was 5.3 fold and the “increase in plasma exposure based on Cmax” value (from here on “increase … on Cmax”) [1, 16] was 3.0 fold. The “reduction of metabolic ratio for AUC0–inf” value [1, 17] was “approximately 83%” and the “reduction of metabolic ratio for Cmax” value [1, 17] was roughly 80%.
In the case of Cc1cc(Nc2ncnc3ccc(NC4=NC(C)(C)CO4)cc23)ccc1Oc1ccn2ncnc2c1 [Tucatinib], the “tucatinib exposures by CYP2C8 metabolizer phenotype” value [2] is reported as “similar”, the “increase … on AUC0–inf” value [3, 18] is reported as roughly 3.0 fold and the “increase … on AUC0–last” value [3, 18] is reported as “approximately 3.0 fold”. For the same compound, the “increase … on Cmax” value [3, 18] was roughly 1.6 fold, the “decrease in plasma exposure based on AUC0–inf” value [4, 19] was 48% and the “decrease in plasma exposure based on AUC0–last” value [4, 19] was “approximately 48%”. The “decrease in plasma exposure based on Cmax” value [4, 19] was roughly 37%, the “decrease in plasma exposure based on AUC0–inf” value ([4]; tucatinib + rifampin vs tucatinib alone, listed as tucatinib) was “approximately 48%” and the “impact on CYP2C9-mediated metabolism in humans” value ([5]; steady-state tucatinib 300 mg BID, tolbutamide probe) was “no impact”. The “increase … on AUC0–inf” value [6, 20] was ~ 1.3 fold, the “increase … on AUC0–last” value [6, 20] was “approximately 1.3 fold” and the “increase … on Cmax” value [6, 20] was “approximately 1.3 fold”. For the same compound, the “clinical classification as inhibitor of P-glycoprotein” value [7] was “weak inhibitor”, the “clinical classification as inhibitor of P-glycoprotein” value ([7]; listed as tucatinib) was “only weakly inhibits” and the “clinical classification as inhibitor of CYP3A/CYP3A4” value [1] was “strong inhibitor”. The “clinical classification as inhibitor of CYP3A/CYP3A4” value ([1]; listed as tucatinib) was “strong CYP3A4 inhibitor”, the “type of inhibition of CYP2C9” value [8] was “competitive inhibition” and the “type of inhibition of CYP2C8” value [9] was “competitive inhibition”. The “participants with serum creatinine increases” value ([10]; Part A) was 50%, the “participants with serum creatinine increases” value ([10]; Part B) was 4% and the “participants with serum creatinine increases” value ([10]; Part D) was 71%. For the same compound, the “participants with serum creatinine increases” value ([10]; Part E) was 54%, the “Grade 3 or higher events” value ([10]; Parts A through E overall) was “No Grade 3 or higher events” and the “TEAEs considered Grade 1 (events)” value ([10]; Parts A through E overall) was 65. For the same compound, the “total number of TEAEs” value ([10]; Parts A through E overall) was 71, the “subjects reporting TEAEs” value ([10]; Parts A through E overall, 37 of 114 subjects) was 32.5% and the tolerability ([10]; Parts A–E, alone and with co-administered drugs) was “well tolerated”. For the same compound, the “events of ALT elevation reported as Grade 1 TEAEs” value ([10]; Parts D and E) was “five”, the “renal function by cystatin C levels” value ([10]; Parts D and E) was “did not reveal any elevated values” and the “clinical classification as inhibitor of CYP2C8” value [11] was “weak inhibitor”. The “clinical classification as inhibitor of CYP2C8” value ([11]; listed as tucatinib) was “only weakly inhibits”, the “inactivation of CYP3A” value [12] was “time/metabolism-dependent inactivation” and the “type of inhibition of CYP3A4” value [12] was “competitive inhibition”. For the same compound, the “impact of food on tucatinib exposures” value [13] was “no clinically relevant impact” and the “type of inhibition of P-glycoprotein (P-gp)” value [14] was “competitive inhibition”.
For CCOc1cc(CC(=O)N[C@@H](CC(C)C)c2ccccc2N2CCCCC2)ccc1C(=O)O [Repaglinide, repaglinide, reference compound], the “increase … on Cmax” value ([11]; repaglinide + tucatinib vs repaglinide alone) was roughly 1.7 fold.
With CCCCNC(=O)NS(=O)(=O)c1ccc(CO)cc1 [4-hydroxytolbutamide, reference compound] the “plasma exposures with vs without tucatinib” value [5, 16] was “Similar”.
With C[C@H]1O[C@@H](O[C@H]2[C@@H](O)C[C@H](O[C@H]3[C@@H](O)C[C@H](O[C@H]4CC[C@@]5(C)[C@H](CC[C@@H]6[C@@H]5C[C@@H](O)[C@]5(C)[C@@H](C7=CC(=O)OC7)CC[C@]65O)C4)O[C@@H]3C)O[C@@H]2C)C[C@H](O)[C@@H]1O [Digoxin, digoxin] the “increase … on AUC0–inf” value [7, 21] was “approximately 1.5 fold”, the “increase … on AUC0–last” value [7, 21] was “approximately 1.5 fold” and the “increase … on Cmax” value [7, 21] was roughly 2.4 fold.
In the case of Cc1cc(Nc2ncnc3ccc(NC4=NC(C)(CO)CO4)cc23)ccc1Oc1ccn2ncnc2c1 (stereo not shown) [ONT-993], the “decrease of metabolic ratio for AUC0–inf” value [3, 22] is reported as “approximately 71%”, the “decrease of metabolic ratio for Cmax” value [3, 22] is reported as roughly 81% and the “metabolic ratio for AUC0–inf, fold higher” value [4, 23] is reported as 1.4 fold. For the same compound, the “metabolic ratio for Cmax, fold higher” value [4, 23] was 3.3 fold, the “radioactive component in feces, share of the dose” value ([15]; feces) was 37% and the “radioactive component in urine, share of the dose” value ([15]; urine) was 1.5%. The “geometric least squares mean ratio for AUC0–inf” value [6, 24] was 1.6 and the “geometric least squares mean ratio for Cmax” value [6, 24] was 2.0.
For OCc1ncc2n1-c1ccc(Cl)cc1C(c1ccccc1F)=NC2 [1-hydroxymidazolam], the “effect of tucatinib on exposure based on AUC0–last and AUC0–inf” value [1, 17] was “no effect” and the “reduction of Cmax” value [1, 17] was “approximately 40%”.

Source: publication PMC9553805 (Clinical Pharmacokinetics, 2022)
